Source: ChEMBL document CHEMBL4507311, “Data for DCP probe A-1155463” (2021)

What was measured:
[1] = GPCRScan assay: inhibition of GABA/PBR; set-up: species or system Rattus norvegicus; radioligand conc. used [nm] 0.3 – 2.0, parental cells brain tissue
[2] = target: Sigma intracellular receptor 2 (Homo sapiens, UniProt Q5BJF2); experiment: GPCRScan assay: inhibition of Sigma 2; set-up: radioligand conc. used [nm] 5.0, parental cells HEKT
[3] = system: Tyrosine-protein kinase ABL1 (Homo sapiens), P00519 [H396P]; conditions: Compound concentration 1000.0 nM
[4] = target: Tyrosine-protein kinase ABL1 (Homo sapiens) (UniProt P00519); conditions: Compound concentration 1000.0 nM
[5] = target: Mitogen-activated protein kinase kinase kinase 6 (Homo sapiens) (UniProt O95382); conditions: Compound concentration 1000.0 nM
[6] = target: Aurora kinase B (Homo sapiens) (UniProt Q96GD4); conditions: Compound concentration 1000.0 nM
Aurora kinase B (Homo sapiens), sequence (Q96GD4 whole entry): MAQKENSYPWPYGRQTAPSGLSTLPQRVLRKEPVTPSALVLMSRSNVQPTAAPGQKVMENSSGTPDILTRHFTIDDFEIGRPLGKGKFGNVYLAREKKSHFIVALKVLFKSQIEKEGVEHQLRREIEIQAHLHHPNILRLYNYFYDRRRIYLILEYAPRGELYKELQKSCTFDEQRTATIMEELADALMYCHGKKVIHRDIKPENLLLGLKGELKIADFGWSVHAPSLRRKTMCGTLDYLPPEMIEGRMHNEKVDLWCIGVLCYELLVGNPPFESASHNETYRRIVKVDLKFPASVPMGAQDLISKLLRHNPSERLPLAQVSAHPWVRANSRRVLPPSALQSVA

[7] = target: Tyrosine-protein kinase Blk (Homo sapiens) (UniProt P51451); conditions: Compound concentration 1000.0 nM
Tyrosine-protein kinase Blk (Homo sapiens), sequence (P51451 2-505 limits assumed): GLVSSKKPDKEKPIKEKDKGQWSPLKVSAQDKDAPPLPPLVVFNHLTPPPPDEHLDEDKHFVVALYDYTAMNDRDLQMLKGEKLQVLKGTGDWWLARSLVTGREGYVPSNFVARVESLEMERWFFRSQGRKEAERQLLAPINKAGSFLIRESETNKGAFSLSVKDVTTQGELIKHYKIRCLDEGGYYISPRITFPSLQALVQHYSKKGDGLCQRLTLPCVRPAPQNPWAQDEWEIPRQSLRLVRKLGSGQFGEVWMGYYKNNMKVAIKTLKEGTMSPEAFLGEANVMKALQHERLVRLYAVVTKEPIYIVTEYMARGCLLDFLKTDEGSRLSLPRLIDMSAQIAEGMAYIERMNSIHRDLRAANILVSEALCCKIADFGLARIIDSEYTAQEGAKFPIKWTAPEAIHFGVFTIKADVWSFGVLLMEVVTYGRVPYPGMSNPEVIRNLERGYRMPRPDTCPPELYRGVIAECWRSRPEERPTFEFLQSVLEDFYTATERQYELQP

[8] = target: Serine/threonine-protein kinase BRSK2 (Homo sapiens) (UniProt Q8IWQ3); conditions: Compound concentration 1000.0 nM
[9] = target: Cyclin-dependent kinase 11A (Homo sapiens) (UniProt Q9UQ88); conditions: Compound concentration 1000.0 nM
[10] = target: Cyclin-dependent kinase 4 (Homo sapiens) (UniProt P11802); conditions: Compound concentration 1000.0 nM
[11] = target: Cyclin-dependent kinase-like 5 (Homo sapiens) (UniProt O76039); conditions: Compound concentration 1000.0 nM
Cyclin-dependent kinase-like 5 (Homo sapiens), sequence (O76039 whole entry): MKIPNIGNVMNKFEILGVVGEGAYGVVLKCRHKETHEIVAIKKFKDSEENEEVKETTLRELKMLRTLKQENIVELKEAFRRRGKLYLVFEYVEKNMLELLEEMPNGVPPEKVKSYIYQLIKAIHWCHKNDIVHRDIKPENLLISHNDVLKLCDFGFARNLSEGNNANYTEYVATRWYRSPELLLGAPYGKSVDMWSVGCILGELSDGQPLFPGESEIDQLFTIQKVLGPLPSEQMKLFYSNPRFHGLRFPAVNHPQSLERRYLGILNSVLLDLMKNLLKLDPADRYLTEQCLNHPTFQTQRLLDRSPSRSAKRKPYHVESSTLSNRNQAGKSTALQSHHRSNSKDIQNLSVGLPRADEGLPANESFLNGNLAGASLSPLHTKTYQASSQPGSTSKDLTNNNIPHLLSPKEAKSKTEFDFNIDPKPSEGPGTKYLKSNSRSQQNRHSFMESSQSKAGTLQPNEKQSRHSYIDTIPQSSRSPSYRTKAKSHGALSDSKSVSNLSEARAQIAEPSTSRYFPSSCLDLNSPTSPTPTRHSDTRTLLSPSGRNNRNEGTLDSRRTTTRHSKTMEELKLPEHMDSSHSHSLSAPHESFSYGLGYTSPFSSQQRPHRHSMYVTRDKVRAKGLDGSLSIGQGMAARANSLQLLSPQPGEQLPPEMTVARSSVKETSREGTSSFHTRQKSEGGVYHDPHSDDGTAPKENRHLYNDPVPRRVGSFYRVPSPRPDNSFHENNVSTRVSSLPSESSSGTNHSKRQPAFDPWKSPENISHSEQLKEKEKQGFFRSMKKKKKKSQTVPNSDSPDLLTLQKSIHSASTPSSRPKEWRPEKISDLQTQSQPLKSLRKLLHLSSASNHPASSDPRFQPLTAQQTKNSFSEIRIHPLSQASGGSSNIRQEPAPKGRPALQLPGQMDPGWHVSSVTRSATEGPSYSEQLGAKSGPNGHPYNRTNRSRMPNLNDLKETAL

[12] = target: Serine/threonine-protein kinase Chk2 (Homo sapiens) (UniProt O96017); conditions: Compound concentration 1000.0 nM
[13] = target: Casein kinase I isoform delta (Homo sapiens) (UniProt P48730); conditions: Compound concentration 1000.0 nM
[14] = target: Megakaryocyte-associated tyrosine-protein kinase (Homo sapiens) (UniProt P42679); conditions: Compound concentration 1000.0 nM
Megakaryocyte-associated tyrosine-protein kinase (Homo sapiens), sequence (P42679 whole entry): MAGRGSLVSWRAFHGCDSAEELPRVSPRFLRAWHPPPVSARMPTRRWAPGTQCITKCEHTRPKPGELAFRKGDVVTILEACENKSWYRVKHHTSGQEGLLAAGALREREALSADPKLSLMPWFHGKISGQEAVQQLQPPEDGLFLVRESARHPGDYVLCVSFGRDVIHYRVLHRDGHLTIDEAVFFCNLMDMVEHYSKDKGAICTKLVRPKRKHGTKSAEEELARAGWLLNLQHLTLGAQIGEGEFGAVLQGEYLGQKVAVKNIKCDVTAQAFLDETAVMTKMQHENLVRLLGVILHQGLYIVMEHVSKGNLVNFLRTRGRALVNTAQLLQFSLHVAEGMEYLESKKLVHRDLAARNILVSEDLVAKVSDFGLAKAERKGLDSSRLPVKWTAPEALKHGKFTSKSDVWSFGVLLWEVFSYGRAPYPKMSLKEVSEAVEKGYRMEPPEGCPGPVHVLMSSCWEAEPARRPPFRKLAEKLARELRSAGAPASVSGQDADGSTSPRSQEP

[15] = target: Ephrin type-A receptor 3 (Homo sapiens) (UniProt P29320); conditions: Compound concentration 1000.0 nM
[16] = target: Mitogen-activated protein kinase 3 (Homo sapiens) (UniProt P27361); conditions: Compound concentration 1000.0 nM
Mitogen-activated protein kinase 3 (Homo sapiens), sequence (P27361 whole entry): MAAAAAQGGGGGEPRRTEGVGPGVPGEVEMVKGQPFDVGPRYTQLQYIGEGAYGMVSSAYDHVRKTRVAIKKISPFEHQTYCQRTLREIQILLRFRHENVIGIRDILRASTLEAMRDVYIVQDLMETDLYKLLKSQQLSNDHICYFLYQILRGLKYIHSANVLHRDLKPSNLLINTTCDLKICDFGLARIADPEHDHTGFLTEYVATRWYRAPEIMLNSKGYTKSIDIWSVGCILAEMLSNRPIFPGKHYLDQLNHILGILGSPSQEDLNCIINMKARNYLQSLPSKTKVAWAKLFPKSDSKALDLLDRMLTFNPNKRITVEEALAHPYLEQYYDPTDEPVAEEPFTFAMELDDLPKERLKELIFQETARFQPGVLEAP

[17] = target: Fibroblast growth factor receptor 1 (Homo sapiens) (UniProt P11362); conditions: Compound concentration 1000.0 nM
[18] = target: Fibroblast growth factor receptor 3 (Homo sapiens) (UniProt P22607); conditions: Compound concentration 1000.0 nM
[19] = target: Tyrosine-protein kinase HCK (Homo sapiens) (UniProt P08631); conditions: Compound concentration 1000.0 nM
[20] = target: Mitogen-activated protein kinase kinase kinase kinase 1 (Homo sapiens) (UniProt Q92918); conditions: Compound concentration 1000.0 nM
[21] = target: Inhibitor of nuclear factor kappa-B kinase subunit beta (Homo sapiens) (UniProt O14920); conditions: Compound concentration 1000.0 nM
[22] = target: Interleukin-1 receptor-associated kinase 4 (Homo sapiens) (UniProt Q9NWZ3); conditions: Compound concentration 1000.0 nM
[23] = target: Tyrosine-protein kinase JAK3 (Homo sapiens) (UniProt P52333); conditions: Compound concentration 1000.0 nM
[24] = target: Serine/threonine-protein kinase STK11 (Homo sapiens) (UniProt Q15831); conditions: Compound concentration 1000.0 nM
[25] = target: Tyrosine-protein kinase Lyn (Homo sapiens) (UniProt P07948); conditions: Compound concentration 1000.0 nM
[26] = target: MAP kinase-activated protein kinase 5 (Homo sapiens) (UniProt Q8IW41); conditions: Compound concentration 1000.0 nM
MAP kinase-activated protein kinase 5 (Homo sapiens), sequence (Q8IW41 whole entry): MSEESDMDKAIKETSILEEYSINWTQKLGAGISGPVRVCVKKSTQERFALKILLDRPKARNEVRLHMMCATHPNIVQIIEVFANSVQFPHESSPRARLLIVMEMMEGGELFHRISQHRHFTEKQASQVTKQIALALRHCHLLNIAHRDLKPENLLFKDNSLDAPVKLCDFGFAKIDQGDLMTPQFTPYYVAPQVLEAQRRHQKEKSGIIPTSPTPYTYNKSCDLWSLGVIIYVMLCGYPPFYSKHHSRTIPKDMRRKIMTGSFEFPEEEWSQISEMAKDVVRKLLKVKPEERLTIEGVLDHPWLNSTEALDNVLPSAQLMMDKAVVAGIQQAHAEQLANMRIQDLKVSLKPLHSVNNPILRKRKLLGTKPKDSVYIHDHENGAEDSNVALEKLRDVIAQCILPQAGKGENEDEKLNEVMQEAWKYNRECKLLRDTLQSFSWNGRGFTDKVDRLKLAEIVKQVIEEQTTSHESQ

[27] = target: Serine/threonine-protein kinase 4 (Homo sapiens) (UniProt Q13043); conditions: Compound concentration 1000.0 nM
[28] = target: Serine/threonine-protein kinase 26 (Homo sapiens) (UniProt Q9P289); conditions: Compound concentration 1000.0 nM
[29] = target: Mitogen-activated protein kinase 14 (Homo sapiens) (UniProt Q16539); conditions: Compound concentration 1000.0 nM
[30] = target: Mitogen-activated protein kinase 13 (Homo sapiens) (UniProt O15264); conditions: Compound concentration 1000.0 nM
[31] = target: Cyclin-dependent kinase 18 (Homo sapiens) (UniProt Q07002); conditions: Compound concentration 1000.0 nM
[32] = target: Platelet-derived growth factor receptor beta (Homo sapiens) (UniProt P09619); conditions: Compound concentration 1000.0 nM
Platelet-derived growth factor receptor beta (Homo sapiens), sequence (P09619 whole entry): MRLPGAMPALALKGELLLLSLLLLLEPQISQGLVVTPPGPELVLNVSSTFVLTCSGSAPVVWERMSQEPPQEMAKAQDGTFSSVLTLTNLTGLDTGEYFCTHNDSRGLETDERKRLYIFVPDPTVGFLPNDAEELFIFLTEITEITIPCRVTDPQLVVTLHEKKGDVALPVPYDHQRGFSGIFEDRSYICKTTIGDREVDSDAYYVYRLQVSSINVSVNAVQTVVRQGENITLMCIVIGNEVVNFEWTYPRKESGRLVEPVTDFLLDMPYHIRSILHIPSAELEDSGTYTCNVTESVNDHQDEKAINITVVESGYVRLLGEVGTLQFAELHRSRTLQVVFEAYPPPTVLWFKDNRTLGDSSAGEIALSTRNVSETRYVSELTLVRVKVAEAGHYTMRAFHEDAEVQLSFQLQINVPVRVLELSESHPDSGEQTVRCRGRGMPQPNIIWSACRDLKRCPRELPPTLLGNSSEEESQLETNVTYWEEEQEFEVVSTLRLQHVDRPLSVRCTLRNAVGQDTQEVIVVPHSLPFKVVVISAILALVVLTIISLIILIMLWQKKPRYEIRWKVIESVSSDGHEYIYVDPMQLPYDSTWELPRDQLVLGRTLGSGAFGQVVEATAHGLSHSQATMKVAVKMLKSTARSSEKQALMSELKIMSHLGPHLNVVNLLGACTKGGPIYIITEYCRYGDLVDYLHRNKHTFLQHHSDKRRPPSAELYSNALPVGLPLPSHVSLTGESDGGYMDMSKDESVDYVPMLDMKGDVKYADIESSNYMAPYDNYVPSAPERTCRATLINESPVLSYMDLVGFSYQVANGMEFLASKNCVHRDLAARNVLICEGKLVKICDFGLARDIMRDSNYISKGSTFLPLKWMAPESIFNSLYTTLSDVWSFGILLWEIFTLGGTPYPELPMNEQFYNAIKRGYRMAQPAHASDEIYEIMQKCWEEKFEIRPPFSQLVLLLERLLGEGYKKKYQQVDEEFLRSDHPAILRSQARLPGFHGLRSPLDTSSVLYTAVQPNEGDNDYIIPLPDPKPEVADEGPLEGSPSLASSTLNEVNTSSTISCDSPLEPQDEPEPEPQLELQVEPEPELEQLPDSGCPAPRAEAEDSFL

[33] = target: Cyclin-dependent kinase 14 (Homo sapiens) (UniProt O94921); conditions: Compound concentration 1000.0 nM
[34] = target: Serine/threonine-protein kinase pim-3 (Homo sapiens) (UniProt Q86V86); conditions: Compound concentration 1000.0 nM
[35] = target: Protein-tyrosine kinase 2-beta (Homo sapiens) (UniProt Q14289); conditions: Compound concentration 1000.0 nM
[36] = target: Rho-associated protein kinase 2 (Homo sapiens) (UniProt O75116); conditions: Compound concentration 1000.0 nM
[37] = target: Ribosomal protein S6 kinase alpha-4 (Homo sapiens) (UniProt O75676); conditions: Compound concentration 1000.0 nM
[38] = target: Ribosomal protein S6 kinase alpha-6 (Homo sapiens) (UniProt Q9UK32); conditions: Compound concentration 1000.0 nM
[39] = target: Serine/threonine-protein kinase Sgk1 (Homo sapiens) (UniProt O00141); conditions: Compound concentration 1000.0 nM
[40] = target: Tyrosine-protein kinase Srms (Homo sapiens) (UniProt Q9H3Y6); conditions: Compound concentration 1000.0 nM
[41] = target: SRSF protein kinase 2 (Homo sapiens) (UniProt P78362); conditions: Compound concentration 1000.0 nM
[42] = target: Serine/threonine-protein kinase tousled-like 2 (Homo sapiens) (UniProt Q86UE8); conditions: Compound concentration 1000.0 nM
[43] = target: Dual specificity protein kinase TTK (Homo sapiens) (UniProt P33981); conditions: Compound concentration 1000.0 nM
[44] = target: Mitogen-activated protein kinase kinase kinase 20 (Homo sapiens) (UniProt Q9NYL2); conditions: Compound concentration 1000.0 nM
[45] = target: D(2) dopamine receptor (Homo sapiens) (UniProt P14416); conditions: Compound concentration 10.0 uM
[46] = target: D(1B) dopamine receptor (Homo sapiens) (UniProt P21918); conditions: Compound concentration 10.0 uM
D(1B) dopamine receptor (Homo sapiens), sequence (P21918 whole entry): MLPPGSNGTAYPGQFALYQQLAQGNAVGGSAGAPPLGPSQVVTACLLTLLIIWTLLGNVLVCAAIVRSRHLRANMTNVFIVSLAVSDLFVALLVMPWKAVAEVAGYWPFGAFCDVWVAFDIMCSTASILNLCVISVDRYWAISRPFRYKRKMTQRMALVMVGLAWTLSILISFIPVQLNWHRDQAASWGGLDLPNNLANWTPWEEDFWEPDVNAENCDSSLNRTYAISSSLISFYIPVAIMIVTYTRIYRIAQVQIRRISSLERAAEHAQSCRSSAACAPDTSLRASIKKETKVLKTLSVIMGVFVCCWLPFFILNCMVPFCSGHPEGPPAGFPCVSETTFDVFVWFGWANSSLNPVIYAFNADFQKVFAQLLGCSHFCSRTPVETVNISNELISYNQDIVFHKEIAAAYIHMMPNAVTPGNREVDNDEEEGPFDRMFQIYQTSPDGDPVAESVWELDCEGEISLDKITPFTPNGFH

Sigma intracellular receptor 2, sequence (Q5BJF2 whole entry): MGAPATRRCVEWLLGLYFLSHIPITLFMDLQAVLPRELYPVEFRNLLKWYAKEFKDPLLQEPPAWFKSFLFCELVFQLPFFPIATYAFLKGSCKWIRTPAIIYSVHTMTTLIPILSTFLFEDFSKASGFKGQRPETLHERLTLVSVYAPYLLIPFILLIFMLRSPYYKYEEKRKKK

Work on `CN(C)CC#Cc1ccc(OCCCc2sc(N3CCc4cccc(C(=O)Nc5nc6ccccc6s5)c4C3)nc2C(=O)O)c(F)c1` [A-1155463] yielded a Ki [1] of 794 nM, a pKi [1] of 6.1 and a Ki [2] of 806 nM. For the same compound, the residual activity [3] was 99%, the residual activity [4] was 93% and the residual activity [5] was 82%. For the same compound, the residual activity [6] was 79%, the residual activity [7] was 92% and the residual activity [8] was 93%. For the same compound, the residual activity [9] was 100%, the residual activity [10] was 100% and the residual activity [11] was 96%. For the same compound, the residual activity [12] was 100%, the residual activity [13] was 95% and the residual activity [14] was 96%. It also gave a residual activity [15] of 91%, a residual activity [16] of 96% and a residual activity [17] of 100%. The residual activity [18] was 98%, the residual activity [19] was 100% and the residual activity [20] was 93%. The residual activity [21] was 72%, the residual activity [22] was 100% and the residual activity [23] was 58%. It also gave a residual activity [24] of 100%, a residual activity [25] of 100% and a residual activity [26] of 99%. The residual activity [27] was 100%, the residual activity [28] was 80% and the residual activity [29] was 100%. For the same compound, the residual activity [30] was 97%, the residual activity [31] was 100% and the residual activity [32] was 94%. The residual activity [33] was 100%, the residual activity [34] was 91% and the residual activity [35] was 100%. It also gave a residual activity [36] of 100%, a residual activity [37] of 100% and a residual activity [38] of 90%. For the same compound, the residual activity [39] was 100%, the residual activity [40] was 100% and the residual activity [41] was 100%. The residual activity [42] was 100%, the residual activity [43] was 92% and the residual activity [44] was 100%. For the same compound, the inhibition [45] was 31.5% and the inhibition [46] was 40.8%.
